Entries after “also recorded” stand apart in the source; their conditions may differ. Read-outs that look alike come from different tables or passages of the source.
Tests used:
[1] = forced degradation study (acid, base, 3% hydrogen peroxide), LC-UV-MS; type: physicochemical
Method: Crystalline fine particle Form I of PRX-3140 potassium salt was subjected to a forced degradation study using acid, base, or hydrogen peroxide exposure for 24 hours. Samples were neutralized and analyzed using LC-UV-MS. [table] Sample Preparation: […] One mL of stock was added to four, 4 mL vials. […] After storage, the samples of acid and base were neutralized by addition of 1 mL their counter solution. […] Samples were analyzed using LC-UV-MS. Table 5 lists a comparison for the control, acid, base, and peroxide samples showing percent peak area versus relative retention time (RRT) at 250 nm. While some minor changes can be noted between the control with the acid and base samples, the overall purity (peak area) of the parent molecule is just slightly higher for the acid and base sample. Some of the minor impurities appear to be reacting with the acid or base, potentially reforming to the parent.

[2] = system: distal gastrointestinal motility; conditions: gastrointestinally active 5-HT4 agonists, comparison; cited from earlier work
Sigma-1 receptor = Sigma-1 receptor (Homo sapiens, UniProt Q99720); test: Sigma-1 radioligand binding assays
Chain of Sigma-1 receptor (Q99720 whole entry): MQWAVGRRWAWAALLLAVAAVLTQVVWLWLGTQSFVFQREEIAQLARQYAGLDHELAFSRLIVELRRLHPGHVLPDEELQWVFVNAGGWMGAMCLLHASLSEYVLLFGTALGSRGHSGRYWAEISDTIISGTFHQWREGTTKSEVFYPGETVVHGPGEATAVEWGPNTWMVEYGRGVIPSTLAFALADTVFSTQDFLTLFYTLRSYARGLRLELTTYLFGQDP
Source text: (§1) The specific ligand binding to the receptors is defined as the difference between the total binding and the nonspecific binding determined in the presence of an excess of unlabelled ligand.

[3] = system: more than 50 other receptors tested including GPCRs, ion channels and receptor tyrosine kinases; test: binding panel of other receptors
Source text: as §1

Sigma-2 receptor = Sigma-2 receptor (Homo sapiens, UniProt Q5BJF2); test: Sigma-2 radioligand binding assays
Chain of Sigma-2 receptor (Q5BJF2 whole entry): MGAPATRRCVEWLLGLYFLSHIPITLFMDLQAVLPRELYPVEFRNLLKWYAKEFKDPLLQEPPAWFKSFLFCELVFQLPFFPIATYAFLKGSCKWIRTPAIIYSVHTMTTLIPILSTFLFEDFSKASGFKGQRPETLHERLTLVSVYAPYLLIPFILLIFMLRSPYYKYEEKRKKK
Source text: as §1

[4] = early-stage clinical studies (safety, tolerability, pharmacokinetics); type: in vivo
Source text: (§2) PRX-3140 is being developed for Alzheimer's disease (AD) and other dementias affecting the cholinergic and/or serotonergic systems including post-traumatic stress disorder (PTSD). Extensive non-clinical studies have been completed including in vitro and in vivo pharmacology, safety pharmacology, genotoxicity as well as single and repeat dose toxicology studies in two species, rat and beagle dog.

[5] = 30% peroxide degradation study, LC/UV/MS; type: physicochemical; conditions: 18-hour exposure to 30% hydrogen peroxide, HPLC 250 nm
[6] = brain/serum partition after oral administration in preclinical studies; conditions: in vivo
Source text: as §2

[7] = system: distal gastrointestinal motility; test: distal gastrointestinal motility; conditions: in vivo
Source text: as §2

[8] = system: all other 5-HT receptors tested; test: radioligand binding, other 5-HT receptors (selectivity); conditions: vs 5-HT4R affinity
Source text: as §1

[9] = photostability study (ICH Q1B), HPLC; type: physicochemical
Method: Two samples of crystalline fine particle Form I of PRX-3140 potassium salt were prepared for photostability testing: (1) 1.5 grams spread evenly across a glass Petri dish and covered with a transparent quartz cover and (2) 1.5 grams spread evenly across a glass Petri dish and covered with aluminum foil. […] Samples were exposed for 2 days and tested using HPLC […] […] Changes were evident for crystalline fine particle Form I of PRX-3140 potassium salt after exposure to UVA and white light. The sample changed color particularly on the upper exposed surface of the material and there were changes apparent in the HPLC data. […] The single impurity profile met the specification (<0.2%) but significant changes were observed. […] Other changes included a change in appearance of the material to a sticky solid and an increase in water content to 4.3% w/w.

[10] = Acid (1N HCl, 24 hours), 250 nm
[11] = Base (1N NaOH, 24 hours), 250 nm
[12] = Control (DI water, 24 hours), 250 nm
[13] = Control (covered with aluminum foil), potassium salt
[14] = Exposed Sample (ICH Q1B light, 2 days), potassium salt

[7-(methylethyl)1,4,6-trioxo(5,7-dihydrothiopheno[2,3-b]pyridine-5-yl)]-N-(3-piperidylpropyl)carboxamide [PRX-3140b]
percent peak area, RRT 1.05 (PRX-3140b) [1, 10]: < 0.03% | percent peak area, RRT 1.05 (PRX-3140b) [1, 11]: < 0.03% | percent peak area, RRT 1.05 (PRX-3140b) [1, 12]: < 0.03% | percent peak area, RRT 1.05 (PRX-3140b) ([1]; H2O2 (3%, 24 hours), 250 nm): 9.1%

COc1cc(N)c(Cl)cc1C(=O)NC1CCN(CCCOc2ccc(F)cc2)CC1OC (centres unmarked) [cisapride]
distal gastrointestinal motility [2]: significant distal gastrointestinal motility observed

CC(C)n1c(=O)c(C(=O)NCCCN2CCCCC2)c([O-])c2ccsc21.[K+] [PRX-3140 potassium salt, 6,7-Dihydro-4-hydroxy-7-isopropyl-6-oxo-N-(3-(piperidin-1-yl)propyl)thieno[2,3-b]pyridine-5-carboxamide potassium salt]
Ki (Sigma-1 receptor): 0.079 to 0.1 µM | affinity for other receptors [3]: no significant affinity | Ki (Sigma-2 receptor): 0.099 to 0.16 µM | oral bioavailability [4]: high oral bioavailability | purity of the parent molecule [5]: 29.6% | CNS penetration [6]: high CNS penetration | effect of acid on the compound ([1]; 1 N HCl for 24 hours): very little effect | effect of base on the compound ([1]; 1 N NaOH for 24 hours): very little effect | percent peak area, RRT 0.99 [1, 10]: 0.07% | percent peak area, RRT 1.05 (PRX-3140b) [1, 10]: <0.03% | percent peak area, RRT 1.08 [1, 10]: 0.11% | percent peak area, RRT 1.11 [1, 10]: 0.04% | percent peak area, RRT 1.27 [1, 10]: 0.04% | percent peak area, RRT 1.34 [1, 10]: 0.15% | percent peak area, RRT 1.53 [1, 10]: 0.43% | percent peak area, RRT 1.79 [1, 10]: 0.04% | percent peak area, RRT 2.51 [1, 10]: 0.06% | percent peak area, RRT 2.70 [1, 10]: 0.13% | percent peak area, RRT 1.00 (parent molecule, purity) ([1]; Acid (1N HCl, 24 hours), 250 nm, listed as PRX-3140 Potassium Salt, potassium salt): 98.94% | percent peak area, RRT 1.00 (parent molecule, purity) ([1]; Acid (1N HCl, 24 hours), 250 nm, potassium salt): 98.9% | percent peak area, RRT 0.94 [1, 11]: 0.28% | percent peak area, RRT 1.05 (PRX-3140b) [1, 11]: <0.03% | percent peak area, RRT 1.08 [1, 11]: 0.12% | percent peak area, RRT 1.34 [1, 11]: 0.16% | percent peak area, RRT 1.53 [1, 11]: 0.42% | percent peak area, RRT 1.79 [1, 11]: 0.05% | percent peak area, RRT 2.51 [1, 11]: 0.05% | percent peak area, RRT 2.70 [1, 11]: 0.12% | percent peak area, RRT 1.00 (parent molecule, purity) ([1]; Base (1N NaOH, 24 hours), 250 nm, listed as PRX-3140 Potassium Salt, potassium salt): 98.71% | percent peak area, RRT 1.00 (parent molecule, purity) ([1]; Base (1N NaOH, 24 hours), 250 nm, potassium salt): 98.7% | percent peak area, RRT 1.05 (PRX-3140b) [1, 12]: <0.03% | percent peak area, RRT 1.08 [1, 12]: 0.12% | percent peak area, RRT 1.11 [1, 12]: 0.04% | percent peak area, RRT 1.34 [1, 12]: 0.17% | percent peak area, RRT 1.53 [1, 12]: 0.42% | percent peak area, RRT 1.71 [1, 12]: 0.23% | percent peak area, RRT 1.79 [1, 12]: 0.11% | percent peak area, RRT 1.93 [1, 12]: 0.06% | percent peak area, RRT 2.51 [1, 12]: 0.06% | percent peak area, RRT 2.70 [1, 12]: 0.18% | percent peak area, RRT 1.00 (parent molecule, purity) ([1]; Control (DI water, 24 hours), 250 nm, listed as PRX-3140, potassium salt): 98.6% | percent peak area, RRT 1.00 (parent molecule, purity) ([1]; Control (DI water, 24 hours), 250 nm, listed as PRX-3140 Potassium Salt, potassium salt): 98.60% | percent peak area, RRT 1.00 (parent molecule, purity) ([1]; Control (DI water, 24 hours), 250 nm, potassium salt): 98.6% | percent peak area, RRT 0.78 (PRX-3140a) ([1]; H2O2 (3%, 24 hours), 250 nm): 8.49% | percent peak area, RRT 0.82 ([1]; H2O2 (3%, 24 hours), 250 nm): 0.10% | percent peak area, RRT 1.05 (PRX-3140b) ([1]; H2O2 (3%, 24 hours), 250 nm): 9.06% | percent peak area, RRT 1.08 ([1]; H2O2 (3%, 24 hours), 250 nm): 0.19% | percent peak area, RRT 1.27 ([1]; H2O2 (3%, 24 hours), 250 nm): 0.21% | percent peak area, RRT 1.34 ([1]; H2O2 (3%, 24 hours), 250 nm): 0.09% | percent peak area, RRT 1.42 ([1]; H2O2 (3%, 24 hours), 250 nm): 0.32% | percent peak area, RRT 1.53 ([1]; H2O2 (3%, 24 hours), 250 nm): 0.42% | percent peak area, RRT 1.79 ([1]; H2O2 (3%, 24 hours), 250 nm): 0.19% | percent peak area, RRT 2.70 ([1]; H2O2 (3%, 24 hours), 250 nm): 0.11% | percent peak area, RRT 1.00 (parent molecule, purity) ([1]; H2O2 (3%, 24 hours), 250 nm, listed as PRX-3140, potassium salt): 80.6% | percent peak area, RRT 1.00 (parent molecule, purity) ([1]; H2O2 (3%, 24 hours), 250 nm, listed as PRX-3140 Potassium Salt, potassium salt): 80.57% | percent peak area, RRT 1.00 (parent molecule, purity) ([1]; H2O2 (3%, 24 hours), 250 nm, potassium salt): 80.6% | distal gastrointestinal motility [7]: without inducing significant distal gastrointestinal motility | difference in affinities compared with all other 5-HT receptors tested [8]: more than 100 fold | Unknown (RRT 0.55) ([9]; Control): 0.01% | Unknown (RRT 0.74) ([9]; Control): 0.01% | Unknown (RRT 0.75) ([9]; Control): 0.01% | Unknown (RRT 0.87) ([9]; Control): 0.09% | Unknown (RRT 0.95) ([9]; Control): 0.04% | Unknown (RRT 0.98) ([9]; Control): 0.01% | Unknown (RRT 1.07) ([9]; Control): 0.01% | Unknown (RRT 1.12) ([9]; Control): 0.01% | Unknown (RRT 1.22) ([9]; Control): 0.01% | Appearance ([9]; Control (covered with aluminum foil)): Pinkish solid | Total impurities [9, 13]: 0.20% | Water Content - KF [9, 13]: 3.1 % w/w | Unknown (RRT 0.55) ([9]; Exposed Sample): 0.01% | Unknown (RRT 0.74) ([9]; Exposed Sample): 0.02% | Unknown (RRT 0.75) ([9]; Exposed Sample): 0.01% | Unknown (RRT 0.86) ([9]; Exposed Sample): 0.01% | Unknown (RRT 0.87) ([9]; Exposed Sample): 0.10% | Unknown (RRT 0.90) ([9]; Exposed Sample): 0.01% | Unknown (RRT 0.91) ([9]; Exposed Sample): 0.01% | Unknown (RRT 0.95) ([9]; Exposed Sample): 0.05% | Unknown (RRT 0.98) ([9]; Exposed Sample): 0.04% | Unknown (RRT 1.07) ([9]; Exposed Sample): 0.06% | Unknown (RRT 1.12) ([9]; Exposed Sample): 0.02% | Unknown (RRT 1.22) ([9]; Exposed Sample): 0.01% | Unknown (RRT 1.50) ([9]; Exposed Sample): 0.02% | Unknown (RRT 1.54) ([9]; Exposed Sample): 0.01% | Unknown (RRT 1.57) ([9]; Exposed Sample): 0.01% | Unknown (RRT 1.63) ([9]; Exposed Sample): 0.05% | Unknown (RRT 1.75) ([9]; Exposed Sample): 0.04% | Unknown (RRT 1.76) ([9]; Exposed Sample): 0.03% | Unknown (RRT 1.79) ([9]; Exposed Sample): 0.01% | Unknown (RRT 2.06) ([9]; Exposed Sample): 0.01% | Unknown (RRT 2.08) ([9]; Exposed Sample): 0.01% | Unknown (RRT 2.16) ([9]; Exposed Sample): 0.01% | Appearance [9, 14]: sticky solid; also recorded: Orange | Total impurities [9, 14]: 0.77% | Water Content - KF [9, 14]: 4.3 % w/w | Unknown (RRT 1.72) ([9]; Exposed Sample, first RRT 1.72 line (r24)): 0.04% | Unknown (RRT 1.83) ([9]; Exposed Sample, potassium salt): 0.16% | Unknown (RRT 1.72) ([9]; Exposed Sample, second RRT 1.72 line (r25)): 0.02% | assay value ([9]; illuminated photostability sample): 94.2 % w/w | Appearance ([9]; t = 0): Light brown solid | Total impurities ([9]; t = 0): 0.22% | Unknown (RRT 0.55) ([9]; t = 0): 0.01% | Unknown (RRT 0.74) ([9]; t = 0): 0.01% | Unknown (RRT 0.75) ([9]; t = 0): 0.01% | Unknown (RRT 0.87) ([9]; t = 0): 0.09% | Unknown (RRT 0.95) ([9]; t = 0): 0.05% | Unknown (RRT 0.98) ([9]; t = 0): 0.01% | Unknown (RRT 1.12) ([9]; t = 0): 0.01% | Unknown (RRT 1.22) ([9]; t = 0): 0.01% | Unknown (RRT 2.01) ([9]; t = 0): 0.01% | Unknown (RRT 2.16) ([9]; t = 0): 0.01% | Unknown (RRT 2.38) ([9]; t = 0): 0.01% | Water Content - KF ([9]; t = 0, potassium salt): 0.9 % w/w

CCCCCNC(=N)N/N=C/c1c[nH]c2ccc(OC)cc12 [tegaserod]
distal gastrointestinal motility [2]: significant distal gastrointestinal motility observed

— patent US11993609B2, “Compositions and methods for oral delivery of crystalline PRX-3140 potassium salt” (Nanopharmaceutics, Inc., priority 2022, dated 2024)
